# Data published in article PMC5218480 (PLoS ONE, 2017).
# Tested on: MV-4-11 cells
# Assay: Gene expression microarray analysis (Affymetrix PrimeView) and GSEA
# Type: cell-based, human
# Parameters: RFU PODN (11730768_x_at) / Fold change /veh PODN (11730768_x_at) / RFU LINC00158 (11744669_a_at) / Fold change /veh LINC00158 (11744669_a_at) / RFU DUSP10 (11751237_a_at) / Fold change /veh DUSP10 (11751237_a_at) / RFU ID3 (11757404_x_at) / Fold change /veh ID3 (11757404_x_at) / RFU PLEKHG5 (11737974_s_at) / Fold change /veh PLEKHG5 (11737974_s_at) / RFU LRRC4B (11730491_at) / Fold change /veh LRRC4B (11730491_at) / RFU GIMAP4 (11747438_a_at) / Fold change /veh GIMAP4 (11747438_a_at) / RFU KRT8 (11758183_x_at) / Fold change /veh KRT8 (11758183_x_at) / RFU CNN1 (11734310_a_at) / Fold change /veh CNN1 (11734310_a_at) / RFU VPS37D (11726825_at) / Fold change /veh VPS37D (11726825_at) / RFU C10orf10 (11716522_x_at) / Fold change /veh C10orf10 (11716522_x_at) / RFU KIR2DL2 /// KIR2DL4 /// KIR2DL5A /// KIR2DL5B /// KIR2DS1 /// KIR2DS2 /// KIR2DS3 /// KIR2DS4 /// KIR3DL3 /// KIR3DL3 /// KIR3DS1 (11738374_at) / Fold change /veh KIR2DL2 /// KIR2DL4 /// KIR2DL5A /// KIR2DL5B /// KIR2DS1 /// KIR2DS2 /// KIR2DS3 /// KIR2DS4 /// KIR3DL3 /// KIR3DL3 /// KIR3DS1 (11738374_at) / RFU C1QL1 (11718748_at) / Fold change /veh C1QL1 (11718748_at) / RFU TMPRSS4 (11747572_a_at) / Fold change /veh TMPRSS4 (11747572_a_at) / RFU HAMP (11756126_x_at) / Fold change /veh HAMP (11756126_x_at) / RFU RNFT2 (11725882_a_at) / Fold change /veh RNFT2 (11725882_a_at) / RFU NR4A2 (11747474_a_at) / Fold change /veh NR4A2 (11747474_a_at) / RFU ABCC12 (11746883_a_at) / Fold change /veh ABCC12 (11746883_a_at) / RFU TMEM136 (11760407_x_at) / Fold change /veh TMEM136 (11760407_x_at) / RFU CLDN22 /// WWC2 (11732394_at) / Fold change /veh CLDN22 /// WWC2 (11732394_at) / RFU HLA-DPB1 (11760878_x_at) / Fold change /veh HLA-DPB1 (11760878_x_at) / RFU SPINT1 (11716480_a_at) / Fold change /veh SPINT1 (11716480_a_at) / RFU GAP43 (11754022_s_at) / Fold change /veh GAP43 (11754022_s_at) / RFU A4GNT (11735810_at) / Fold change /veh A4GNT (11735810_at) / RFU PRB3 (11715151_x_at) / Fold change /veh PRB3 (11715151_x_at) / RFU TUBB4B (11761932_at) / Fold change /veh TUBB4B (11761932_at) / RFU CAPN14 (11732068_a_at) / Fold change /veh CAPN14 (11732068_a_at) / RFU TMCC2 (11721928_a_at) / Fold change /veh TMCC2 (11721928_a_at) / RFU IRGQ (11745062_a_at) / Fold change /veh IRGQ (11745062_a_at) / RFU FAM174B (11720279_a_at) / Fold change /veh FAM174B (11720279_a_at) / RFU TMPRSS4 (11748680_a_at) / Fold change /veh TMPRSS4 (11748680_a_at) / RFU FAM212B (11763350_a_at) / Fold change /veh FAM212B (11763350_a_at) / RFU PLEKHG5 (11743358_a_at) / Fold change /veh PLEKHG5 (11743358_a_at) / RFU ZSCAN30 (11745921_a_at) / Fold change /veh ZSCAN30 (11745921_a_at) / RFU CMKLR1 (11741424_a_at) / Fold change /veh CMKLR1 (11741424_a_at) / RFU LOC101060620 /// MAPK8IP1 (11723275_at) / Fold change /veh LOC101060620 /// MAPK8IP1 (11723275_at) / RFU SPTSSB (11747773_x_at) / Fold change /veh SPTSSB (11747773_x_at) / RFU PRSS12 (11739890_at) / Fold change /veh PRSS12 (11739890_at) / RFU BIN1 (11741810_x_at) / Fold change /veh BIN1 (11741810_x_at) / RFU WNT11 (11732464_a_at) / Fold change /veh WNT11 (11732464_a_at) / RFU C10orf10 (11716521_a_at) / Fold change /veh C10orf10 (11716521_a_at) / RFU C5orf56 (11738089_at) / Fold change /veh C5orf56 (11738089_at) / RFU CYB561 (11721691_x_at) / Fold change /veh CYB561 (11721691_x_at) / RFU ANKRD19P (11752326_a_at) / Fold change /veh ANKRD19P (11752326_a_at) / RFU OR2T12 /// OR2T33 /// OR2T8 (11738714_s_at) / Fold change /veh OR2T12 /// OR2T33 /// OR2T8 (11738714_s_at) / RFU VCAN (11748164_a_at) / Fold change /veh VCAN (11748164_a_at) / RFU JSRP1 (11732532_at) / Fold change /veh JSRP1 (11732532_at) / RFU KRTAP10-11 (11738290_x_at) / Fold change /veh KRTAP10-11 (11738290_x_at) / RFU MYO3A (11730013_a_at) / Fold change /veh MYO3A (11730013_a_at) / RFU EBF3 (11725865_a_at) / Fold change /veh EBF3 (11725865_a_at) / RFU CAMK2N1 (11719241_x_at) / Fold change /veh CAMK2N1 (11719241_x_at) / RFU C5orf56 (11738088_a_at) / Fold change /veh C5orf56 (11738088_a_at) / RFU OLFML3 (11715873_a_at) / Fold change /veh OLFML3 (11715873_a_at) / RFU LOC100653217 /// NTM (11731650_a_at) / Fold change /veh LOC100653217 /// NTM (11731650_a_at) / RFU MAPK11 (11762145_a_at) / Fold change /veh MAPK11 (11762145_a_at) / RFU FIZ1 (11724087_x_at) / Fold change /veh FIZ1 (11724087_x_at) / RFU OASL (11726364_x_at) / Fold change /veh OASL (11726364_x_at) / RFU SOX15 (11748057_x_at) / Fold change /veh SOX15 (11748057_x_at) / RFU CD79A (11719716_a_at) / Fold change /veh CD79A (11719716_a_at) / RFU HIST1H1D (11736915_at) / Fold change /veh HIST1H1D (11736915_at) / RFU CASKIN2 (11723855_a_at) / Fold change /veh CASKIN2 (11723855_a_at) / RFU LOC730098 (11760151_x_at) / Fold change /veh LOC730098 (11760151_x_at) / RFU OR4N2 (11742367_at) / Fold change /veh OR4N2 (11742367_at) / RFU PRRT2 (11749266_a_at) / Fold change /veh PRRT2 (11749266_a_at) / RFU SNX32 (11753110_a_at) / Fold change /veh SNX32 (11753110_a_at) / RFU CDHR5 (11726645_a_at) / Fold change /veh CDHR5 (11726645_a_at) / RFU RCAN1 (11760418_a_at) / Fold change /veh RCAN1 (11760418_a_at) / RFU FAM167A (11723789_a_at) / Fold change /veh FAM167A (11723789_a_at) / RFU FAM26E (11764081_at) / Fold change /veh FAM26E (11764081_at) / RFU ISYNA1 (11749810_s_at) / Fold change /veh ISYNA1 (11749810_s_at) / RFU ACY1 (11761880_at) / Fold change /veh ACY1 (11761880_at) / RFU 11764098_at / Fold change /veh 11764098_at / RFU SAMD14 (11745864_x_at) / Fold change /veh SAMD14 (11745864_x_at) / RFU NPB (11741838_a_at) / Fold change /veh NPB (11741838_a_at) / RFU TMPRSS6 (11731388_a_at) / Fold change /veh TMPRSS6 (11731388_a_at) / RFU KRTAP10-2 (11738614_at) / Fold change /veh KRTAP10-2 (11738614_at) / RFU ARHGAP8 /// PRR5-ARHGAP8 (11727945_x_at) / Fold change /veh ARHGAP8 /// PRR5-ARHGAP8 (11727945_x_at) / RFU KRTAP5-7 /// NADSYN1 (11734609_at) / Fold change /veh KRTAP5-7 /// NADSYN1 (11734609_at) / RFU RASL12 (11751679_a_at) / Fold change /veh RASL12 (11751679_a_at) / RFU CDKN2B (11736163_a_at) / Fold change /veh CDKN2B (11736163_a_at) / RFU PRF1 (11729649_at) / Fold change /veh PRF1 (11729649_at) / RFU, ZNF638 /// ZNF638-IT1 / Fold change vs veh, ZNF638 /// ZNF638-IT1 / RFU, PANK3 / Fold change vs veh, PANK3 / RFU, SH3YL1 / Fold change vs veh, SH3YL1 / RFU, ZEB2 / Fold change vs veh, ZEB2 / RFU, NRIP1 / Fold change vs veh, NRIP1 / RFU, PTTG1IP / Fold change vs veh, PTTG1IP / RFU, CAPN2 / Fold change vs veh, CAPN2 / RFU, MED14 / Fold change vs veh, MED14 / RFU, SNORA58 / Fold change vs veh, SNORA58 / RFU, C1orf63 / Fold change vs veh, C1orf63 / RFU, LRRFIP1 / Fold change vs veh, LRRFIP1 / RFU, NDUFAF7 / Fold change vs veh, NDUFAF7 / RFU, SLC12A2 / Fold change vs veh, SLC12A2 / RFU, IBTK / Fold change vs veh, IBTK / RFU, ESF1 / Fold change vs veh, ESF1 / Fold change vs veh, TMEM50B / RFU, TAOK1 / Fold change vs veh, TAOK1 / RFU, ACBD3 / Fold change vs veh, ACBD3 / RFU, TMA16 / Fold change vs veh, TMA16 / RFU, RWDD3 / Fold change vs veh, RWDD3 / RFU, BCAT1 / Fold change vs veh, BCAT1 / RFU, EDEM3 / Fold change vs veh, EDEM3 / RFU, TMEM33 / Fold change vs veh, TMEM33 / RFU, WDR75 / Fold change vs veh, WDR75 / RFU, AHCTF1 / Fold change vs veh, AHCTF1 / RFU, TFRC / Fold change vs veh, TFRC / RFU, ZDHHC17 / Fold change vs veh, ZDHHC17 / RFU, NOM1 / Fold change vs veh, NOM1 / RFU, ARL8B / Fold change vs veh, ARL8B / RFU, ZBTB11 / Fold change vs veh, ZBTB11 / RFU, TAMM41 / Fold change vs veh, TAMM41 / RFU, KIAA1704 /// LOC100996395 / Fold change vs veh, KIAA1704 /// LOC100996395 / RFU, ING1 / Fold change vs veh, ING1 / RFU, TRMT61B / Fold change vs veh, TRMT61B / RFU, FUBP3 / Fold change vs veh, FUBP3 / RFU, TP53 / Fold change vs veh, TP53 / RFU, TNKS2 / Fold change vs veh, TNKS2 / RFU, ZFP14 / Fold change vs veh, ZFP14 / RFU, ACTR2 / Fold change vs veh, ACTR2 / RFU, PPP3R1 / Fold change vs veh, PPP3R1 / RFU, PIK3R1 / Fold change vs veh, PIK3R1 / RFU, HNRNPA1 / Fold change vs veh, HNRNPA1 / RFU, RNF170 / Fold change vs veh, RNF170 / RFU, ZNF28 / Fold change vs veh, ZNF28 / RFU, RNGTT / Fold change vs veh, RNGTT / RFU, OGT / Fold change vs veh, OGT / RFU, BRD1 / Fold change vs veh, BRD1 / RFU, MARS / Fold change vs veh, MARS / RFU, ZNF655 / Fold change vs veh, ZNF655 / RFU, FAHD1 / Fold change vs veh, FAHD1 / RFU, BDP1 / Fold change vs veh, BDP1 / RFU, LRRCC1 / Fold change vs veh, LRRCC1 / RFU, ARID1A / Fold change vs veh, ARID1A / RFU, ZNF146 / Fold change vs veh, ZNF146 / RFU, ZNF330 / Fold change vs veh, ZNF330 / RFU, GPN3 / Fold change vs veh, GPN3 / RFU, C9orf123 / Fold change vs veh, C9orf123 / RFU, N4BP2L2 / Fold change vs veh, N4BP2L2 / RFU, ARFIP1 / Fold change vs veh, ARFIP1 / RFU, FAM179B / Fold change vs veh, FAM179B / RFU, BCL10 / Fold change vs veh, BCL10 / RFU, UHRF1BP1L / Fold change vs veh, UHRF1BP1L / RFU, BET1 / Fold change vs veh, BET1 / RFU, CNOT2 / Fold change vs veh, CNOT2 / RFU, ZNF268 / Fold change vs veh, ZNF268 / Fold change vs veh, ZNF507 / RFU, DGCR2 / Fold change vs veh, DGCR2 / RFU, WDSUB1 / Fold change vs veh, WDSUB1 / Fold change vs veh, HSP90B1 /// MIR3652 / RFU, ADSS / Fold change vs veh, ADSS / RFU, GK / Fold change vs veh, GK / RFU, ZNF148 / Fold change vs veh, ZNF148 / RFU, TAF9 / Fold change vs veh, TAF9 / RFU, SLC1A5 / Fold change vs veh, SLC1A5 / RFU, SLMO2 / Fold change vs veh, SLMO2 / RFU, ABCC4 / Fold change vs veh, ABCC4 / RFU, LOC101060439 /// RAP1B / Fold change vs veh, LOC101060439 /// RAP1B / RFU, RFX7 / Fold change vs veh, RFX7 / RFU, GTPBP10 / Fold change vs veh, GTPBP10 / RFU, CNEP1R1 / Fold change vs veh, CNEP1R1 / RFU, BIVM-ERCC5 /// ERCC5 / Fold change vs veh, BIVM-ERCC5 /// ERCC5 / RFU, ILF3 / Fold change vs veh, ILF3 / RFU 11762660_at / Fold change /veh 11762660_at / RFU VCAN (11757783_s_at) / Fold change /veh VCAN (11757783_s_at) / RFU DDX43 (11728927_at) / Fold change /veh DDX43 (11728927_at) / RFU KRT8 (11758188_x_at) / Fold change /veh KRT8 (11758188_x_at) / RFU NKD1 (11759106_at) / Fold change /veh NKD1 (11759106_at) / RFU SRD5A1 (11742802_a_at) / Fold change /veh SRD5A1 (11742802_a_at) / RFU TPSAB1 /// TPSB2 (11721975_s_at) / Fold change /veh TPSAB1 /// TPSB2 (11721975_s_at) / RFU GSTM3 (11746129_a_at) / Fold change /veh GSTM3 (11746129_a_at) / RFU IL23R (11737362_x_at) / Fold change /veh IL23R (11737362_x_at) / RFU TMEM51 (11727254_a_at) / Fold change /veh TMEM51 (11727254_a_at) / RFU PIWIL2 (11732686_x_at) / Fold change /veh PIWIL2 (11732686_x_at) / RFU ORM1 (11744905_x_at) / Fold change /veh ORM1 (11744905_x_at) / RFU CCDC152 (11743942_at) / Fold change /veh CCDC152 (11743942_at) / RFU ECM1 (11717891_a_at) / Fold change /veh ECM1 (11717891_a_at) / RFU IL23R (11748794_a_at) / Fold change /veh IL23R (11748794_a_at) / RFU TNFAIP8L3 (11732012_x_at) / Fold change /veh TNFAIP8L3 (11732012_x_at) / RFU MBOAT4 (11741988_at) / Fold change /veh MBOAT4 (11741988_at) / RFU 11764193_at / Fold change /veh 11764193_at / RFU TMEM53 (11763286_at) / Fold change /veh TMEM53 (11763286_at) / RFU MAGEB2 (11727129_at) / Fold change /veh MAGEB2 (11727129_at) / RFU TMEM200A (11744735_a_at) / Fold change /veh TMEM200A (11744735_a_at) / RFU CCDC152 (11751479_a_at) / Fold change /veh CCDC152 (11751479_a_at) / RFU FAM211A (11726209_a_at) / Fold change /veh FAM211A (11726209_a_at) / RFU RGS16 (11746705_a_at) / Fold change /veh RGS16 (11746705_a_at) / RFU VCAN (11755009_s_at) / Fold change /veh VCAN (11755009_s_at) / RFU RHOB (11743442_s_at) / Fold change /veh RHOB (11743442_s_at) / RFU RGS16 (11720943_a_at) / Fold change /veh RGS16 (11720943_a_at) / RFU RGS16 (11720944_at) / Fold change /veh RGS16 (11720944_at) / RFU, VPS4B / Fold change vs veh, VPS4B / RFU, CREB1 / Fold change vs veh, CREB1 / RFU, DNAJC13 / Fold change vs veh, DNAJC13 / RFU, GNAQ / Fold change vs veh, GNAQ / RFU, CDK5R1 / Fold change vs veh, CDK5R1 / RFU, ZRANB3 / Fold change vs veh, ZRANB3 / RFU, CUL4A / Fold change vs veh, CUL4A / RFU, CCNY / Fold change vs veh, CCNY / RFU, UFL1 / Fold change vs veh, UFL1 / RFU, COG3 / Fold change vs veh, COG3 / RFU, DIAPH2 / Fold change vs veh, DIAPH2 / RFU, SKA2 / Fold change vs veh, SKA2 / RFU, AFF3 / Fold change vs veh, AFF3 / RFU, LMF1 / Fold change vs veh, LMF1 / RFU, IPO11 / Fold change vs veh, IPO11 / RFU, DFFB / Fold change vs veh, DFFB / RFU, FOXP1 / Fold change vs veh, FOXP1 / RFU, CARD8 / Fold change vs veh, CARD8 / RFU, STRN3 / Fold change vs veh, STRN3 / RFU, ADK / Fold change vs veh, ADK / RFU, RASSF2 / Fold change vs veh, RASSF2 / RFU, WIPF1 / Fold change vs veh, WIPF1 / RFU, LARP1B / Fold change vs veh, LARP1B / RFU, RASA1 / Fold change vs veh, RASA1 / RFU, RB1 / Fold change vs veh, RB1 / RFU, PPFIA1 / Fold change vs veh, PPFIA1 / RFU, MAT2A / Fold change vs veh, MAT2A / RFU, CCT5 / Fold change vs veh, CCT5 / RFU, WDR92 / Fold change vs veh, WDR92 / RFU, CUX1 / Fold change vs veh, CUX1 / RFU, TTC7A / Fold change vs veh, TTC7A / RFU, TMEM135 / Fold change vs veh, TMEM135 / RFU, DEPTOR / Fold change vs veh, DEPTOR / RFU, CPM / Fold change vs veh, CPM / RFU, DNAJB6 / Fold change vs veh, DNAJB6 / RFU, CACNA2D3 / Fold change vs veh, CACNA2D3 / RFU, DTX4 / Fold change vs veh, DTX4 / RFU, TFCP2 / Fold change vs veh, TFCP2 / RFU, GMCL1 /// GMCL1P1 / Fold change vs veh, GMCL1 /// GMCL1P1 / RFU, AEBP2 / Fold change vs veh, AEBP2 / RFU, SNHG1 /// SNORD22 /// SNORD25 /// SNORD26 /// SNORD27 /// SNORD28 /// SNORD29 /// SNORD31 / Fold change vs veh, SNHG1 /// SNORD22 /// SNORD25 /// SNORD26 /// SNORD27 /// SNORD28 /// SNORD29 /// SNORD31 / Fold change (Aza/veh), C12orf56 (ProbeSet 11735607_a_at) / Fold change (ACY-1035/veh), C12orf56 (ProbeSet 11735607_a_at) / Fold change (Aza/veh), FGFR1OP (ProbeSet 11751329_s_at) / Fold change (ACY-1035/veh), FGFR1OP (ProbeSet 11751329_s_at) / Fold change (Aza/veh), VPS36 (ProbeSet 11739960_a_at) / Fold change (ACY-1035/veh), VPS36 (ProbeSet 11739960_a_at) / RFU SYPL1 (11715823_x_at) / Fold change /veh SYPL1 (11715823_x_at) / RFU IGFBP7 (11715501_s_at) / Fold change /veh IGFBP7 (11715501_s_at) / RFU REEP3 (11722064_at) / Fold change /veh REEP3 (11722064_at) / RFU IGLL1 (11728026_x_at) / Fold change /veh IGLL1 (11728026_x_at): dose or concentration left out as unconfirmed
# Conditions: MV-4-11 cells, 48 hours
smiles,measurement,value
Nc1ccc(-c2cccs2)cc1NC(=O)c1ccc2c(c1)cc(C1CC1)n2CCN1CCOCC1 [ACY-1035],Fold change /veh C10orf10 (11716522_x_at),1.10
